From patent US9242996B2 (Novartis AG, priority 2013, dated 2016)

Tests used:
activated ERK2 [1] = biological target: T1, activated ERK2 (Homo sapiens (Human), UniProt P28482); assay: Activated ERK2 kinase assay, ERK2 New conditions (AlphaScreen, ERKtide phosphorylation); format: biochemical; settings: 0.25 nM ERK2, 200 nM ERKtide peptide, 35 μM ATP, 30 min preincubation
Procedure, shortened: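 Read-out is AlphaScreen with anti-phospho-EGFR (Thr669) antibody after EDTA quench and overnight dark incubation. Reaction: 0.25 nM ERK2, 30 min compound preincubation, then 200 nM ERKtide plus 35 µM ATP for 2–3 h at ambient temperature, pH 7.5. IC50 by four-parameter fit.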

activated ERK2 [2] = biological target: T1, activated ERK2; assay: Activated ERK2 (20 pM) Kinase Assay (AlphaScreen, ERKtide phosphorylation); format: biochemical; settings: 0.02 nM ERK2, 400 nM ERKtide peptide, 35 μM ATP, 30 min preincubation
Procedure, shortened: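 AlphaScreen read-out (anti-phospho-EGFR Thr669 antibody, protein A acceptor/streptavidin donor beads) of ERKtide (400 nM) phosphorylation by 20 pM activated ERK2 at 35 μM ATP.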

T1 sequence (P28482 whole entry): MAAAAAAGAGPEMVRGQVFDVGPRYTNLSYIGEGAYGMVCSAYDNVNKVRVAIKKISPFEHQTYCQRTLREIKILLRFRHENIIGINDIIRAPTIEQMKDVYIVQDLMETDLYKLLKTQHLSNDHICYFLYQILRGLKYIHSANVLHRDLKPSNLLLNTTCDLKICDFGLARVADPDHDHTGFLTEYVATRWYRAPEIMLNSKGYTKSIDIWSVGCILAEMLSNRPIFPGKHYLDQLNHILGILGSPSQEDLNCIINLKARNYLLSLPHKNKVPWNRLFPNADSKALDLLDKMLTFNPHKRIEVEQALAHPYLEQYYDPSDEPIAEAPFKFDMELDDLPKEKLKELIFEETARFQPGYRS

Row | Structure (SMILES) | IC50 (activated ERK2 [1]) [nM] | IC50 (activated ERK2 [2]) [nM]
1 | CO[C@H]1CC[C@H](c2cnc(N)c(-c3ccc(C(=O)NCc4ccccc4)c(F)c3)n2)CC1 [Example 116, 4-(3-amino-6-((1r,4r)-4-methoxycyclohexyl)pyrazin-2-yl)-N-benzyl-2-fluorobenzamide] | 18.9 | 9.42
2 | Cc1nn(C)cc1-c1cnc(N)c(-c2ccc(C(=O)N[C@H](CO)c3cccc(Cl)c3)c(F)c2)n1 [Example 127, (S)-4-(3-amino-6-(1,3-dimethyl-1H-pyrazol-4-yl)pyrazin-2-yl)-N-(1-(3-chlorophenyl)-2-hydroxyethyl)-2-fluorobenzamide] | 0.243 | 0.0604
3 | Cc1c(-c2cnc(N)c(-c3ccc(C(=O)N[C@H](CO)c4cccc(Cl)c4)c(F)c3)c2)cnn1C [Example 151, (S)-4-(2-amino-5-(1,5-dimethyl-1H-pyrazol-4-yl)pyridin-3-yl)-N-(1-(3-chlorophenyl)-2-hydroxyethyl)-2-fluorobenzamide] | 0.115 | 0.0233
4 | Nc1ncc([C@H]2CC[C@H](N)CC2)nc1-c1ccc(C(=O)N[C@H](CO)c2cccc(Cl)c2)c(F)c1 [Example 191, 4-(3-amino-6-((1r,45)-4-aminocyclohexyl)pyrazin-2-yl)-N—((S)-1-(3-chlorophenyl)-2-hydroxyethyl)-2-fluorobenzamide] | 4.53 | 1.49
5 | Nc1ncc([C@H]2CC[C@@H](N)CC2)nc1-c1ccc(C(=O)N[C@H](CO)c2cccc(Cl)c2)c(F)c1 [Example 192, 4-(3-amino-6-((1s,4R)-4-aminocyclohexyl)pyrazin-2-yl)-N—((S)-1-(3-chlorophenyl)-2-hydroxyethyl)-2-fluorobenzamide] | 8.04 | 4.93
6 | Nc1ncc(C2CCOCC2)nc1-c1ccc(C(=O)N[C@H](CO)c2cccc(F)c2)c(F)c1 [Example 279, (S)-4-(3-amino-6-(tetrahydro-2H-pyran-4-yl)pyrazin-2-yl)-2-fluoro-N-(1-(3-fluorophenyl)-2-hydroxyethyl) benzamide] | 0.518 | 0.429
7 | Cn1nncc1-c1cnc(N)c(-c2ccc(C(=O)N[C@H](CO)c3cccc(Cl)c3)c(F)c2)c1 [Example 300, (S)-4-(2-amino-5-(1-methyl-1H-1,2,3-triazol-5-yl)pyridin-3-yl)-N-(1-(3-chlorophenyl)-2-hydroxyethyl)-2-fluorobenzamide] | 0.228 | 0.0655
8 | Nc1ncc(C2CCCCC2)nc1-c1ccc(C(=O)NCc2ccccc2)c(F)c1 [Example 421, 4-(3-amino-6-cyclo-hexylpyrazin-2-yl)-N-benzyl-2-fluorobenzamide] | 12.6 | 6.38
9 | Nc1ncc(C2=CCCCC2)nc1-c1ccc(C(=O)NCc2ccccc2)c(F)c1 [Example 424, 4-(3-amino-6-(cyclohex-1-en-1-yl)pyrazin-2-yl)-N-benzyl-2-fluorobenzamide] | 155 | 113
10 | Nc1ncc(C2=CCCCC2)nc1-c1ccc(C(=O)N[C@H](CO)c2cccc(Cl)c2)c(F)c1 [Example 425, (S)-4-(3-amino-6-(cyclohex-1-en-1-yl)pyrazin-2-yl)-N-(1-(3-chlorophenyl)-2-hydroxyethyl)-2-fluorobenzamide] | 0.907 | 0.359
11 | C[C@@H](NC(=O)c1ccc(-c2nc(C3=CCCCC3)cnc2N)cc1F)c1cc(F)cc(S(C)(=O)=O)c1 [Example 426, (R)-4-(3-amino-6-(cyclohex-1-en-1-yl)pyrazin-2-yl)-2-fluoro-N-(1-(3-fluoro-5-(methylsulfonyl)phenyl)ethyl) benzamide] | 1.36 | 0.585
12 | Nc1ncc(C2=CCOCC2)nc1-c1ccc(C(=O)NCc2ccccc2)c(F)c1 [Example 427, 4-(3-amino-6-(3,6-dihydro-2H-pyran-4-yl)pyrazin-2-yl)-N-benzyl-2-fluorobenzamide] | 16.7 | 6.41
13 | Nc1ncc(C2=CCOCC2)nc1-c1ccc(C(=O)N[C@H](CO)c2cccc(Cl)c2)c(F)c1 [Example 428, (S)-4-(3-amino-6-(3,6-dihydro-2H-pyran-4-yl)pyrazin-2-yl)-N-(1-(3-chlorophenyl)-2-hydroxyethyl)-2-fluorobenzamide] | 0.219 | 0.0759
14 | C[C@@H](NC(=O)c1ccc(-c2nc(C3=CCOCC3)cnc2N)cc1F)c1cc(F)cc(S(C)(=O)=O)c1 [Example 429, (R)-4-(3-amino-6-(3,6-dihydro-2H-pyran-4-yl)pyrazin-2-yl)-2-fluoro-N-(1-(3-fluoro-5-(methylsulfonyl)phenyl)ethyl) benzamide] | 0.503 | 0.221

Next, values leading:

Row | IC50 (activated ERK2 [1]) [nM] | IC50 (activated ERK2 [2]) [nM] | Structure (SMILES)
15 | 0.145 | 0.041 | Cc1nn(C)cc1-c1cnc(N)c(-c2ccc(C(=O)N[C@H](CO)c3cccc(Cl)c3)c(F)c2)c1 [Example 152, (S)-4-(2-amino-5-(1,3-dimethyl-1H-pyrazol-4-yl)pyridin-3-yl)-N-(1-(3-chlorophenyl)-2-hydroxyethyl)-2-fluorobenzamide]
16 | 0.158 | 0.0785 | COCCn1cc(-c2cnc(N)c(-c3ccc(C(=O)N[C@H](CO)c4cccc(Cl)c4)c(F)c3)c2)cn1 [Example 172, (S)-4-(2-amino-5-(1-(2-methoxyethyl)-1H-pyrazol-4-yl)pyridin-3-yl)-N-(1-(3-chlorophenyl)-2-hydroxyethyl)-2-fluorobenzamide]
17 | 0.191 | 0.0923 | Cn1cc(-c2cnc(N)c(-c3ccc(C(=O)N[C@H](CO)c4cccc(Cl)c4)c(F)c3)c2)cn1 [Example 263, (S)-4-(2-amino-5-(1-methyl-1H-pyrazol-4-yl)pyridin-3-yl)-N-(1-(3-chlorophenyl)-2-hydroxyethyl)-2-fluorobenzamide]
18 | 0.169 | 0.0378 | Cc1cccc([C@@H](CO)NC(=O)c2ccc(-c3cc(-c4cn(C)nc4C)cnc3N)cc2F)c1 [Example 283, (S)-4-(2-amino-5-(1,3-dimethyl-1H-pyrazol-4-yl)pyridin-3-yl)-2-fluoro-N-(2-hydroxy-1-(m-tolyl)ethyl) benzamide]
19 | 0.192 | 0.0814 | Cn1cc(-c2cnc(N)c(-c3ccc(C(=O)N[C@H](CO)c4cc(F)cc(Cl)c4)c(F)c3)c2)cn1 [Example 289, (S)-4-(2-amino-5-(1-methyl-1H-pyrazol-4-yl)pyridin-3-yl)-N-(1-(3-chloro-5-fluorophenyl)-2-hydroxyethyl)-2-fluorobenzamide]
20 | 0.153 | 0.0715 | CCn1cc(-c2cnc(N)c(-c3ccc(C(=O)N[C@H](CO)c4cccc(Cl)c4)c(F)c3)c2)cn1 [Example 297, (S)-4-(2-amino-5-(1-ethyl-1H-pyrazol-4-yl)pyridin-3-yl)-N-(1-(3-chlorophenyl)-2-hydroxyethyl)-2-fluorobenzamide]
21 | 0.104 | 0.0263 | Cc1cccc([C@@H](CO)NC(=O)c2ccc(-c3nc(C4CCOCC4)cnc3N)cc2F)c1 [Example 309, (S)-4-(3-amino-6-(tetrahydro-2H-pyran-4-yl)pyrazin-2-yl)-2-fluoro-N-(2-hydroxy-1-(m-tolyl)ethyl) benzamide]
22 | 0.147 | 0.0614 | C[C@@H](NC(=O)c1ccc(-c2nc(C3CCCCC3)cnc2N)cc1F)c1cc(F)cc(S(C)(=O)=O)c1 [Example 423, (R)-4-(3-amino-6-cyclo-hexylpyrazin-2-yl)-2-fluoro-N-(1-(3-fluoro-5-(methylsulfonyl)phenyl)ethyl) benzamide]
